Reference: patent US20120142766A1, “SUBSTITUTED 1,3-DIOXANES AND THEIR USES” (EVOLVA SA, priority 2007, published 2012)

How the values were obtained:
[1] = test system: Human platelet rich plasma; test: TP receptor platelet aggregation, human (U-46619-induced); format: cell-based; conditions: 3 μM U-46619-induced
Description: Thrombosis Research 33:277-288.
TP Receptor Platelet Aggregation—Human:
Human (60±10 kg) platelet rich plasma
Assay. Inhibition of 3 μM U-46619-induced platelet aggregation Incubation Time, Temp: 5 minutes at 37° C. Incubation Buffer Trisodium Citrate (0.13 M)-treated fresh platelet rich plasma
Time of Assessment: 5 minutes
Quantification Method Optical Density Change

[2] = test system: arterial thrombosis in a mouse model; test: Arterial thrombosis mouse model (FeCl3 on femoral artery); format: in vivo; conditions: i.v.
Description: The solutions are diluted 3.3-fold in saline and 100 μl/25 g is injected. Thus, the above-mentioned doses of 100 and 300 mg/kg of compound correspond to final doses of 30 and 100 mg/kg.
During the experiments, a soluble salt of the drug is provided (potassium salt of compound C), diluted in saline. Of this formulation, 100 μl/25 g is injected i.v. in the tail vein (dose of 100 mg/kg).
Solutions are injected (100 μl/25 g body weight) i.v. in the tail vein over 2 min to obtain doses of each compound of 30 mg/kg and 100 mg/kg. Aspirin is given the same way at a dose of 200 mg/kg. Clopidogrel is administered by oral gavage at a dose of 20 mg/kg at 6-7 hours prior to the experiment. The animals assigned to each group are matched for body weight. Mice are typically 8-10 weeks old males and are in a 100% Swiss genetic background.
The flow in each image is expressed as a percentage of that at the contralateral side, and data are averaged for all 120 images to determine total flow. The same analysis is performed for 10 min intervals (which gives essentially the same information as the area under the curve). […] Flow before treatment is recorded as 100%, and that in occluded arteries as 0%. At the end of the experiment, blood is collected on 0.01M citrate by heart puncture for determination of blood cell counts. Plasma is prepared by centrifugation and stored at −20° C. for determination of drug levels.
Statistical analysis for differences between two groups is performed by non-parametric Student t-test. Occlusion times >30 min were considered equal to 30 min for statistical analysis. Significance is set at p<0.05.

`O=C(O)CC/C=C\C[C@@H]1CO[C@H](c2ccccc2Cl)O[C@@H]1c1ccccc1O` [Compound C, (Z)-6-((2S,4S,5R)-2-(2-chlorophenyl)-4-(2-hydroxyphenyl)-1,3-dioxan-5-yl)hex-4-enoic acid] was tested, and the IC50 [1] was 0.31 µM, the Occlusion time ([2]; 30 mg/kg in vehicle) was “slightly prolongs the occlusion time as compared to aspirin (p=0.024), but has no effect as compared to vehicle” and the Total blood flow ([2]; 30 mg/kg in vehicle) was “no effect on total blood flow”. For the same molecule, the Occlusion time ([2]; 100 mg/kg in vehicle) was “prolongs the occlusion time versus aspirin (p=0.0002), but not versus vehicle only (p=0.095)”, the Total blood flow ([2]; 100 mg/kg in vehicle) was “slightly improved total blood flow as compared to aspirin (p=0.055), but not as compared to vehicle (p=0.45)” and the “Blood flow in the time window 0-10 min” value ([2]; 100 mg/kg in vehicle, 0-10 min) was “significantly higher flow as compared to aspirin (p=0.0002) but not as compared to vehicle only (p=0.11)”.
